In patent US20100305113A1, “Substituted Imidazopyridazines as Lipid Kinase Inhibitors” (priority 2007, published 2010):

What was measured:
Format in all cases: biochemical
Conditions in all cases: Enzymatic Data
PI3K delta = biological target: T1, PI3K delta (Homo sapiens, UniProt O00329); assay: PI3K delta enzymatic assay (Kinase-Glo luminescence)
T1 construct: for the full-length p110-d subunit are generated and fused by overlapping PCR; p85(iSH2) fusion partner (same polypeptide; see partner chain) (N); Gly linker (N); His tag (C); made in house; host or cells: baculovirus; Tn5 (Trichoplusia ni) or TiniPro insect cells
Protocol: (§1) In a more preferred assay, the kinase reaction is performed in a final volume of 10 μL per well of a low volume non binding CORNING, 384 well black plate (Cat. No. #3676). The final concentrations of ATP and phosphatidyl inositol (PI) in the assay are 1 μM and 10 μg/mL respectively. The reaction is started by the addition of ATP.
(§2) The components of the assay are added per well as follows:
(§3) 50 nL test compounds in 90% DMSO per well, in columns 1-20, 8 concentrations (⅓ and 1/3.33 serial dilution step) in single. • Low control: 50 nL of 90% DMSO in half the wells of columns 23-24 (0.45% in final). • High control: 50 nL of reference compound (e.g. compound of Example 7 in WO 2006/122806, incorporated by reference herein that regard) in the other half of columns 23-24 (2.5 μM in final). • Standard: 50 nL of reference compound as just mentioned diluted as the test compounds in columns 21-22 • 20 mL ‘buffer’ are prepared per assay: • 200 μL of 1M TRIS HCl pH7.5 (10 mM in final) • 60 μL of 1M MgCl2 (3 mM in final) • 500 μL of 2M NaCl (50 mM in final) • 100 μL of 10% CHAPS (0.05% in final) • 200 μL of 100 mM DTT (1 mM in final) • 18.94 mL of nanopure water • 10 mL ‘PI’ are prepared per assay: • 200 μL of 1 mg/ml L-alpha-Phosphatidylinositol (Liver Bovine, Avanti Polar Lipids Cat. No. 840042C MW=909.12) prepared in 3% OctylGlucoside ([…]) • 9.8 mL of ‘buffer’ • 10 mL ‘ATP’ are prepared per assay: • 6.7 μL of 3 mM stock of ATP giving a final concentration of 1 μM per well • 10 mL of ‘buffer’ • 2.5 mL of each PI3K construct are prepared per assay in ‘PI’ with the following final concentration: • 10 nM PI3K alfa BV-1075 • 25 nM beta BV-949 • 10 nM delta BV-1060 • 150 nM gamma BV-950 • 5 μL of ‘PI/PI3K’ are added per well. • 5 μl ‘ATP’ are added per well to start the reaction. • The plates are then incubated at room temperature for 60 minutes (alfa, beta, delta) or 120 minutes (gamma). • The reaction is terminated by the addition of 10 μL Kinase-Glo (Promega Cat. No. #6714). • The assay plates are read after 10 minutes in Synergy 2 reader (BioTek, Vermont USA) with an integration time of 100 milliseconds and sensitivity set to 191. • Output: The High control is around 60′000 counts and the Low control is 30′000 or lower • This luminescence assay gives a useful Z′ ratio between 0.4 and 0.7 The Z′ value is a universal measurement of the robustness of an assay. A Z′ between 0.5 and 1.0 is considered an excellent assay.
PI3Kδ BV-1060 p85(iSH2)-Gly Linker-p110d (Full-Length)-C-term His Tact
(§4) IC50 is determined by a four parameter curve fitting routine that comes aloneg with “excel fit”. A 4 Parameter logistic equation is used to calculate IC50 values (IDBS XLfit) of the percentage inhibition of each compound at 8 concentrations (usually 10, 3.0, 1.0, 0.3, 0.1, 0.030, 0.010 and 0.003 μM). Alternatively, IC50 values are calculated using idbsXLfit model 204, which is a 4 parameter logistic model.

PI3K beta = biological target: T2, PI3K beta (Homo sapiens, UniProt P42338); assay: PI3K beta enzymatic assay (Kinase-Glo luminescence)
T2 construct: for the full-length p110-b subunit are generated and fused by overlapping PCR; p85(iSH2) fusion partner (same polypeptide; see partner chain) (N); Gly linker (N); His tag (C); made in house; host or cells: baculovirus; Tn5 (Trichoplusia ni) or TiniPro insect cells
Protocol: as §1, §2, §3
PI3Kβ BV-949 p85(iSH2)-Gly linker-p110b (Full-Length)-C-Term His Tag
as §4

PI3K alfa = biological target: T3, PI3K alfa (Homo sapiens, UniProt P42336); assay: PI3K alfa enzymatic assay (Kinase-Glo luminescence)
T3 construct: p85(iSH2) fusion partner (same polypeptide; see partner chain) (N); 12x Gly linker (N); His tag (C); made in house; host or cells: baculovirus; Tn5 (Trichoplusia ni) or TiniPro insect cells
Protocol: as §1, §2, §3, §4

PI3K gamma = biological target: T4, PI3K gamma (Homo sapiens, UniProt P48736); assay: PI3K gamma enzymatic assay (Kinase-Glo luminescence)
T4 construct: His tag (C); made in house; host or cells: construct from Roger Williams lab (MRC LMB); baculovirus (pVL1393); Tn5 (Trichoplusia ni) or TiniPro insect cells
Protocol: as §1, §2, §3, §4

T3 sequence (P42336 with tags, fused parts or gaps limits assumed): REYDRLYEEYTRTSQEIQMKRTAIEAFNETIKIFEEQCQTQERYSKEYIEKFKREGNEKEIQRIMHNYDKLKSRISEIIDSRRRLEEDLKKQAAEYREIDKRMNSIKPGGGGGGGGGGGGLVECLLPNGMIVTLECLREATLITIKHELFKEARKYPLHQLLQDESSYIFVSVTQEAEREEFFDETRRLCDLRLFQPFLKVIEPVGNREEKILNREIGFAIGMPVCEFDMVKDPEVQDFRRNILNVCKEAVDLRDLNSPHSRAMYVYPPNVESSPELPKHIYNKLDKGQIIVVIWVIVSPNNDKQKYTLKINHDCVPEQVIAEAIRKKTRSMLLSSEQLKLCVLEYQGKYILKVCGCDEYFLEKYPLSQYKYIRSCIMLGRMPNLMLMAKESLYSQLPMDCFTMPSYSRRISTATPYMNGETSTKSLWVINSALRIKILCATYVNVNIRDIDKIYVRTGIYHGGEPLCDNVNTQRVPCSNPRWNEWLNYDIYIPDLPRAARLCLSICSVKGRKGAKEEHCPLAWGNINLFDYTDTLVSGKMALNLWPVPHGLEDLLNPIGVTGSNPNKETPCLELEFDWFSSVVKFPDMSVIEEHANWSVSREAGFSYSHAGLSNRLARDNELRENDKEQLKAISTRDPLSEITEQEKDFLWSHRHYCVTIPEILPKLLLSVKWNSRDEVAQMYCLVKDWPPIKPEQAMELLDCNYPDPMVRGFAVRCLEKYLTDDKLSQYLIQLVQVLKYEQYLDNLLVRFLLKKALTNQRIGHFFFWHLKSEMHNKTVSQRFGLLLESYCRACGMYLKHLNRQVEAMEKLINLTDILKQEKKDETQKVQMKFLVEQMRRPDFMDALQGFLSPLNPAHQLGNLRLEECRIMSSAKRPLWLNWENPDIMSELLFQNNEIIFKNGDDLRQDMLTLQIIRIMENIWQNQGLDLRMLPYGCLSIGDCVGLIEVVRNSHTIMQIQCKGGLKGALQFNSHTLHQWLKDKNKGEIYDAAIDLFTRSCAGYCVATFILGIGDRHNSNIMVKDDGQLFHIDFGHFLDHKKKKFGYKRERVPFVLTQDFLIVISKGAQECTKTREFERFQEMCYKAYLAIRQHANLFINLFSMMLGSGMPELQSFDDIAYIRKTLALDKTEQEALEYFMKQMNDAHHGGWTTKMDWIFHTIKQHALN
T4 sequence (P48736 144-1102 limits assumed): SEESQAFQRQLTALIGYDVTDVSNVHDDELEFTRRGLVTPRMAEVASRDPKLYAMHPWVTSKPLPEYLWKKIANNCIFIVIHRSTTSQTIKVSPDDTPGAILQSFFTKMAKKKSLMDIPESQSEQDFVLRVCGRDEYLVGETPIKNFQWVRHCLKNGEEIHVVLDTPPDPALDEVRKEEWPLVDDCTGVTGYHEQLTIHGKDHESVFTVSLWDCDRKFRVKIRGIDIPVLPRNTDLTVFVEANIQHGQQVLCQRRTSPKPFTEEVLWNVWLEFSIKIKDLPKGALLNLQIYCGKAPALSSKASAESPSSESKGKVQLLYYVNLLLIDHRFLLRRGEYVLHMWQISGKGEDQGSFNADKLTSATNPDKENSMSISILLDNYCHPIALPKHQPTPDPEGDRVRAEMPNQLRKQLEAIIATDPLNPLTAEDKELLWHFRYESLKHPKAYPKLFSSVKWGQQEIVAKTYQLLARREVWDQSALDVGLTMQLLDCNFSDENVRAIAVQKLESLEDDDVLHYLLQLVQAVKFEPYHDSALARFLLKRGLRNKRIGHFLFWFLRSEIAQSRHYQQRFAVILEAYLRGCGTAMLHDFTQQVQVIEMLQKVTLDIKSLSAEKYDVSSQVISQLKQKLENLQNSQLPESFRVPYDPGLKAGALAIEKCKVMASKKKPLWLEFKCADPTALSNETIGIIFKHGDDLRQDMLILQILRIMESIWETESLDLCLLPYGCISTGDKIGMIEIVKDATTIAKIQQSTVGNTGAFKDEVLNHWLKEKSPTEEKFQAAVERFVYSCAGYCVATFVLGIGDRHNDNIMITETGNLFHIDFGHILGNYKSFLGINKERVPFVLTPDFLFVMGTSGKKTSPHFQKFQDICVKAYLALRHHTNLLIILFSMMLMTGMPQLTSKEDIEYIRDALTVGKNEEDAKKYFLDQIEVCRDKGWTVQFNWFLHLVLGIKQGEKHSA
T2 sequence (P42338 with tags, fused parts or gaps limits assumed): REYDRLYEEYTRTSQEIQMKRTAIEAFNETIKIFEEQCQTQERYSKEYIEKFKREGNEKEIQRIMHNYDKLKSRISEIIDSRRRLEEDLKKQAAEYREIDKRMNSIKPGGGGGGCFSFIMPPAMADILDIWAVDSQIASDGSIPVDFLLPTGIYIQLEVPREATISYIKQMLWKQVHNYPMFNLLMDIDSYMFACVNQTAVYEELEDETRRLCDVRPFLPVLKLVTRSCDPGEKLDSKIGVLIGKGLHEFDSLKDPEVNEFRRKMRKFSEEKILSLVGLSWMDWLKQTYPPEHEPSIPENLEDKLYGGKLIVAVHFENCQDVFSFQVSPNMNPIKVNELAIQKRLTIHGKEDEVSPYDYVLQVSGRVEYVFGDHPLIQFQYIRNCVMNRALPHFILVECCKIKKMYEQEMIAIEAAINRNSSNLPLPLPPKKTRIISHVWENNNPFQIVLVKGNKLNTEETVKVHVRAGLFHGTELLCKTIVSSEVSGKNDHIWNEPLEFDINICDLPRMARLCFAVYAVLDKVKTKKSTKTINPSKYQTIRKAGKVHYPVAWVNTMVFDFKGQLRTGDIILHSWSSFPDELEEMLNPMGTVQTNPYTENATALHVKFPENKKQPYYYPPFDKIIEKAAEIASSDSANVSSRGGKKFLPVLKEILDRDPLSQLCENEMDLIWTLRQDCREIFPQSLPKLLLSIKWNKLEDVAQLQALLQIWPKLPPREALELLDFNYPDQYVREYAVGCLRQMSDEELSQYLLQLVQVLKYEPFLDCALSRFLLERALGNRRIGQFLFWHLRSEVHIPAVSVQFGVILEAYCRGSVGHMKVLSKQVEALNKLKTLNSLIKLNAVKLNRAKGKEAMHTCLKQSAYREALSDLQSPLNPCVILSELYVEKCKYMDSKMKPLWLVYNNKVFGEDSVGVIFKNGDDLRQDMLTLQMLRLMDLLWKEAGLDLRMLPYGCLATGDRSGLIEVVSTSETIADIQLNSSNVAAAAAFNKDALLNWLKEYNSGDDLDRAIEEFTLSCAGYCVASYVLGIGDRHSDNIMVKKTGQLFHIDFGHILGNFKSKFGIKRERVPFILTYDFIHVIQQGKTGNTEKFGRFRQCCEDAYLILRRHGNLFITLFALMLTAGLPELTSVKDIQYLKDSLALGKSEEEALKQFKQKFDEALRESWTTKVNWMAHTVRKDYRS
T1 sequence (O00329 with tags, fused parts or gaps limits assumed): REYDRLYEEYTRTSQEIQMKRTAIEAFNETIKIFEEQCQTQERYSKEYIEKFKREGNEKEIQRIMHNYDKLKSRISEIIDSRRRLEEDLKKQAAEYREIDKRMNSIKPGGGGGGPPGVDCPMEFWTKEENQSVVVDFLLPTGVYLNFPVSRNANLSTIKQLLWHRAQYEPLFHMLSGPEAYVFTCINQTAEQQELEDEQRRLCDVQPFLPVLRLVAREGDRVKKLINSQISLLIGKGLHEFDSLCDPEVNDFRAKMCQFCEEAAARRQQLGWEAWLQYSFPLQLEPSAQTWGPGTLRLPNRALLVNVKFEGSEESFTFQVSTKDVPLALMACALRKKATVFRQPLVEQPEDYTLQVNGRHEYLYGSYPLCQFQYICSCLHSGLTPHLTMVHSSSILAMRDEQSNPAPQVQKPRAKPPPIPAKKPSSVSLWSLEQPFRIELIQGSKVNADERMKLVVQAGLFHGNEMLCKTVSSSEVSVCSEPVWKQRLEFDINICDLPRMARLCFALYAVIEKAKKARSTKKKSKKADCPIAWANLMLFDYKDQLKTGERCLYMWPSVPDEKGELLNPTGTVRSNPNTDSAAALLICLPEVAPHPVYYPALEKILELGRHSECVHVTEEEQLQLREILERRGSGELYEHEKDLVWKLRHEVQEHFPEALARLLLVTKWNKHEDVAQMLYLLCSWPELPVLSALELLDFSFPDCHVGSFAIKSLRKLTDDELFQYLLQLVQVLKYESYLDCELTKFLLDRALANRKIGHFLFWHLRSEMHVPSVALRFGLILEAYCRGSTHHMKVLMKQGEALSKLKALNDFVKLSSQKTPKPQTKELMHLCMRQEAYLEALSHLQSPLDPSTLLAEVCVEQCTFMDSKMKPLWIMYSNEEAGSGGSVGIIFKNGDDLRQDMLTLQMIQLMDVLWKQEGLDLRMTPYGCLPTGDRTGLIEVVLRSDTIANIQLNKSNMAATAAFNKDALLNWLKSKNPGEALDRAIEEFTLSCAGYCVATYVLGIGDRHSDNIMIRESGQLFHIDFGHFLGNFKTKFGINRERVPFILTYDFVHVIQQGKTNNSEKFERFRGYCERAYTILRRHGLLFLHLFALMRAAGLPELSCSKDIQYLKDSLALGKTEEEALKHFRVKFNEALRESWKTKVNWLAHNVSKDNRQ

Row | SMILES | IC50 (PI3K delta) [µM] | IC50 (PI3K beta) [µM] | IC50 (PI3K alfa) [µM] | IC50 (PI3K gamma) [µM]
1 | COc1cc(-c2ccc3nc(C)c(-c4cnc(N)c(C(F)(F)F)c4)n3n2)ccc1OCCNC(=O)c1ccncc1 [Example 29] | 1.59 | > 9.1 | 0.093 | 2.74
2 | COc1cc(-c2ccc3nc(C)c(-c4cnc(N)c(C(F)(F)F)c4)n3n2)ccc1OCCNC(=O)c1cccnc1 [Example 31] | 0.748 | > 9.1 | 0.038 | 4.32
3 | COc1ccc(C(=O)NCCOc2ccc(-c3ccc4nc(C)c(-c5cnc(N)c(C(F)(F)F)c5)n4n3)cc2OC)cc1OC [Example 37] | > 9.1 | > 9.1 | 0.233 | 2.3
4 | COc1cccc(C(=O)NCCOc2ccc(-c3ccc4nc(C)c(-c5cnc(N)c(C(F)(F)F)c5)n4n3)cc2OC)c1 [Example 39] | > 9.1 | > 9.1 | 0.368 | > 9.1
5 | COc1cc(-c2ccc3nc(C)c(-c4cnc(N)c(C(F)(F)F)c4)n3n2)ccc1OCCNC(=O)c1cc(OC)c(OC)c(OC)c1 [Example 41] | > 9.1 | > 9.1 | 0.294 | 0.933
6 | COc1cc(-c2ccc3nc(C)c(-c4cnc(N)c(C(F)(F)F)c4)n3n2)ccc1OCCNC(=O)Nc1cccc(C#N)c1 [Example 47] | > 9.1 | > 9.1 | 1.81 | 4.5
7 | COc1cc(-c2ccc3nc(C)c(-c4cnc(N)c(C(F)(F)F)c4)n3n2)ccc1OCCNC(=O)Nc1cccnc1 [Example 51] | 1.66 | > 9.1 | 0.028 | 2.52
8 | COc1cccc(NC(=O)NCCOc2ccc(-c3ccc4nc(C)c(-c5cnc(N)c(C(F)(F)F)c5)n4n3)cc2OC)c1 [Example 59] | > 9.1 | > 9.1 | 0.371 | 2.64
9 | COc1cc(-c2ccc3nc(C)c(-c4cnc(N)c(C(F)(F)F)c4)n3n2)ccc1OCCNC(=O)Nc1cc(OC)c(OC)c(OC)c1 [Example 61] | 2.71 | > 9.1 | 0.242 | 0.194
10 | COc1cc(-c2ccc3nc(C)c(-c4cnc(N)c(C(F)(F)F)c4)n3n2)ccc1OCCCN1CCCC1=O [Example 77] | 0.281 | 3.79 | 0.075 | 1.26
11 | COc1cc(-c2ccc3nc(C)c(-c4cnc(N)c(C(F)(F)F)c4)n3n2)ccc1OCCNC(=O)OC(C)C [Example 79] | 2.04 | > 9.1 | 0.099 | 0.648
12 | COc1cc(-c2ccc3nc(C)c(-c4cnc(N)c(C(F)(F)F)c4)n3n2)ccc1OCCCNC(=O)OC(C)C [Example 80] | 2.7 | > 9.1 | 0.175 | 1.93
13 | COc1cc(-c2ccc3nc(C)c(-c4cnc(N)c(C(F)(F)F)c4)n3n2)ccc1OCCNC(=O)C(C)C [Example 81] | 0.372 | > 9.1 | 0.03 | 0.503
14 | COc1cc(-c2ccc3nc(C)c(-c4cnc(N)c(C(F)(F)F)c4)n3n2)ccc1OCCCNC(=O)C(C)C [Example 82] | 0.164 | 4.01 | 0.019 | 0.087
15 | COc1ccc(-c2ccc3nc(C)c(-c4ccnc(-n5ccnc5)n4)n3n2)cc1OC [Example 83, 6-(3,4-Dimethoxy-phenyl)-3-(2-imidazol-1-yl-pyrimidin-4-yl)-2-methyl-imidazo[1,2-b]pyridazine] | 0.397 | > 9.1 | 0.276 | 1.16
16 | COCCOCCOCCOc1ccc(-c2ccc3nc(C)c(-c4cnc(N)c(C(F)(F)F)c4)n3n2)cc1OC [Example 84, 5-[6-(3-Methoxy-4-{2-[2-(2-methoxy-ethoxy)-ethoxy]-ethoxy}-phenyl)-2-methyl-imidazo[1,2-b]pyridazin-3-yl]-3-trifluoromethyl-pyridin-2-ylamine] | 0.174 | > 9.1 | 0.04 | 0.065
17 | COc1cc(-c2ccc3nc(C)c(-c4cnc(N)c(C(F)(F)F)c4)n3n2)ccc1OCCCNC(=O)C(F)(F)F [Example 85, N-(3-{4-[3-(6-Amino-5-trifluoromethyl-pyridin-3-yl)-2-methyl-imidazo[1,2-b]pyridazin-6-yl]-2-methoxy-phenoxy}-propyl)-2,2,2-trifluoro-acetamide] | 3.49 | > 9.1 | 0.244 | 2.59
18 | COc1ccc(-c2ccc3nc(C)c(-c4ccnc(NCc5ccccc5)n4)n3n2)cc1OC [Example 86, Benzyl-{4-[6-(3,4-dimethoxy-phenyl)-2-methyl-imidazo[1,2-b]pyridazin-3-yl]-pyrimidin-2-yl}-amine] | 4 | > 9.1 | 2.15 | 8.51
19 | COc1ccc(-c2ccc3nc(C)c(-c4ccnc(NCC5CC5)n4)n3n2)cc1OC [Example 87, Cyclopropylmethyl-{4-[6-(3,4-dimethoxy-phenyl)-2-methyl-imidazo[1,2-b]pyridazin-3-yl]-pyrimidin-2-yl}-amine] | 0.357 | > 9.1 | 0.296 | 0.098
20 | COc1ccc(-c2ccc3nc(C)c(-c4ccnc(N(C)CCN(C)C)n4)n3n2)cc1OC [Example 88, N-{4-[6-(3,4-Dimethoxy-phenyl)-2-methyl-imidazo[1,2-b]pyridazin-3-yl]-pyrimidin-2-yl}-N,N′,N′-trimethyl-ethane-1,2-diamine] | 0.041 | 3.03 | 0.051 | 0.098
21 | COc1cccc(NC(=O)NCCCOc2cc(-c3ccc4nc(C)c(-c5cnc(N)c(C(F)(F)F)c5)n4n3)ccc2OC)c1 [Example 89, 1-(3-{5-[3-(6-Amino-5-trifluoromethyl-pyridin-3-yl)-2-methyl-imidazo[1,2-b]pyridazin-6-yl]-2-methoxy-phenoxy}-propyl)-3-(3-methoxy-phenyl)-urea] | > 9.1 | > 9.1 | 1.64 | 6.86
22 | COCCOCCOCCOc1ccc(-c2ccc3nc(C)c(-c4ccc(S(C)(=O)=O)cc4)n3n2)cc1OC [Example 90, 3-(4-Methanesulfonyl-phenyl)-6-(3-methoxy-4-{2-[2-(2-methoxy-ethoxy)-ethoxy]-ethoxy}-phenyl)-2-methyl-imidazo[1,2-b]pyridazine] | 1.74 | > 9.1 | 2.36 | 3.46
23 | CCS(=O)(=O)c1ccc(-c2c(C)nc3ccc(-c4ccc(OCCOCCOCCOC)c(OC)c4)nn23)cc1 [Example 91, 3-(4-Ethanesulfonyl-phenyl)-6-(3-methoxy-4-{2-[2-(2-methoxy-ethoxy)-ethoxy]-ethoxy}-phenyl)-2-methyl-imidazo[1,2-b]pyridazine] | 3.4 | > 9.1 | 4.11 | > 9.1
